We go through two molecules from patent US20220304955A1 (Nacuity Pharmaceuticals, Inc., priority 2021, published 2022).

Where only a bound is given, the exact number is not on record here.

As a reminder, the Km is the concentration of substrate that gives half-maximal velocity.

The target of series [1] is T1, glutamate cysteine ligase (GCL, EC 6.3.2.2) (Homo sapiens, UniProt P48506).
T1 sequence (P48506 1-637): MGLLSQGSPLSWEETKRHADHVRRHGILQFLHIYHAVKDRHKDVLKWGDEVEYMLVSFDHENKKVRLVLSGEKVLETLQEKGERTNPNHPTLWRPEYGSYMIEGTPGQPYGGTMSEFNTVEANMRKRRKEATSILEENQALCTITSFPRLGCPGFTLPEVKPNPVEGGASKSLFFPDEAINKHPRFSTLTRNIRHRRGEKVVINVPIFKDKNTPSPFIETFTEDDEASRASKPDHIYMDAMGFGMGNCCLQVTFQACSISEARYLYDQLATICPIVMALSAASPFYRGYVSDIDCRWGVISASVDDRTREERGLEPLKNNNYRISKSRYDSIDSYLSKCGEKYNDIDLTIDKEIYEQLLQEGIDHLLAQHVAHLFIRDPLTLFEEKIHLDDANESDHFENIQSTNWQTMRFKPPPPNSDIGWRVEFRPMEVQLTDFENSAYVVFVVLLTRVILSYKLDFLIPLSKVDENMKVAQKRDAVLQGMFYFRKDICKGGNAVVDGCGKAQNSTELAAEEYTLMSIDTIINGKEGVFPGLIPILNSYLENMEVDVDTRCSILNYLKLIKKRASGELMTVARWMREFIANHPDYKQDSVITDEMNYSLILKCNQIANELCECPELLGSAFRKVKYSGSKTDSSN
T1 sequence (P48507 1-274 partner): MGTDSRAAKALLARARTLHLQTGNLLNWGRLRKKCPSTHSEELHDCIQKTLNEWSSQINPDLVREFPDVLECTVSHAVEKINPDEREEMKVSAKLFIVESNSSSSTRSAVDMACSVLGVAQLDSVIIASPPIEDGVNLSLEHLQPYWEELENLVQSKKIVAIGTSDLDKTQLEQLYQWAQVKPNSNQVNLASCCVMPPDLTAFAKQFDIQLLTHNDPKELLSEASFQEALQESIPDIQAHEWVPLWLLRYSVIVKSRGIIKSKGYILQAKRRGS
To be noted: read-out: apparent Km; cited from earlier work.

The subject of the next series is N27 cells. Nature of the series: Cellular ferroptosis assay, cell viability by MTT. The series is classed as cell-based, rat. How it is done:
Materials and Methods. […] Cells were cultured at 37° C. with 5% CO2.

The subject of the next series is Caenorhabditis elegans. Nature of the series: Caenorhabditis elegans Lifespan assay. The series is classed as in vivo. To be noted: for Median survival: from late L4 larval/young adult stage, 25 °C, strain TJ1060. The procedure:
NAC and NACA were dissolved in sterile water then added to the molten NGM at 55° C. Media containing equivalent vehicle alone (1% v/v DMSO) was used for comparison. 1% v/v DMSO was also added to NAC and NACA plates for consistency, as DMSO itself may affect lifespan. Standard overnight culture of the Escherichia coli strain OP50 was used as the food source. Lifespan data were collected at 25 (±1) ° C. using the temperature sensitive-sterile strain TJ1060 [spe-9(hc88); rrf-3(b26)] as a proxy for wildtype. A developmentally synchronous population was obtained by transferring egg-laying adults to fresh plates at 16° C. for 4 hours. The adults were removed and the plates with eggs then transferred to 25° C. to ensure sterility. After 48 hours at 25° C., when worms were at the late L4 larval/young adult stage, 25-35 nematodes were transferred to fresh plates containing either vehicle control (1% v/v DMSO), 1 mM NAC, 10 mM NAC, 1 mM NACA, 10 mM NACA, 1 mM diNACA, and 10 mM diNACA. All plates were coded to allowing blinding of the experimenter to the treatment regime during scoring. Nematodes were scored for survival at 1 to 2-day intervals and transferred to freshly prepared plates as needed (every 2-4 days). Worms lost not due to death were recorded as censored.
Results. Data was analyzed using GraphPad Prism 9, with survival curves compared using a long-rank (Mantel-Cox) test. P values are given for pair-wise comparisons to the vehicle control population.

Another series has as its system C. elegans. Nature of the series: Diethyl maleate (DEM) assay, survival of C. elegans. In kind it is in vivo, Caenorhabditis elegans. The conditions noted are these: for % alive: then 10 mM DEM, scored at 24 hours. The procedure: Materials and Methods. Effects of NAC, NACA and diNACA on diethyl maleate (DEM; Sigma-Aldrich)-induced toxicity in C. elegans was evaluated. (10 mM DEM alone conjugates GSH causing 50% depletion of GSH and 50% lethality after 24 hour exposure (Jenkins et al., 2020)). DEM was added to neat DMSO and added to molten NGM at 55° C. to a final concentration of 10 mM DEM and 0.5% v/v DMSO. Plates were seeded with E. coli strain OP50. Data were collected at 25 (±1) ° C. using the temperature sensitive-sterile strain TJ1060. A synchronous population was obtained by transferring egg-laying adults to fresh plates at 16° C. for 2-3 hours. The adults were removed and the plates with eggs then transferred to 25° C. to ensure sterility. After 48 hours at 25° C., when worms were at the late L4/young adult stage, 70 nematodes were transferred to fresh plates containing either vehicle control, 1 mM NAC, 10 mM NAC, 1 mM NACA, 10 mM NACA, 1 mM diNACA, 10 mM diNACA (all with 1.0% v/v DMSO). Worms were aged at 25° C. for a further 4 days and then transferred to DEM plates, 35-45 per plate, two plates per treatment. Survival, determined by touch-provoked movement, was scored at 24 hours after exposure to DEM.

A short description of series [2]: Bioavailability after oral administration in rat (plasma levels). The series is classed as in vivo. The procedure: Materials and Methods. Bioavailability of diNACA after oral administration in rat was evaluated. NACA and diNACA, separately, were suspended in phosphate-buffered saline (pH 7) and dosed to rats by oral gavage. Blood specimens were collected and processed to produce plasma. Plasma specimens were analyzed for NAC, NACA and diNACA concentration.
The thiol moiety of NAC, NACA, or diNACA and their respective internal standards oxidizes quickly in plasma through formation of disulfides. In order to determine total NAC and total NACA levels in plasma, tris(2-carboxyethyl)phosphine (TCEP) is added during the extraction to reduce disulfide bonds. Ammonium bicarbonate is added to control sample pH near neutral, as TCEP will otherwise acidify the aliquoted samples and hinder derivatization. The free analyte is then derivatized to a stable thioether using 2-chloro-1-methylpyridinium iodide (CMPI). […]
Thioether derivatives of NAC and NACA for LCMS analyses. Samples were analyzed on a Waters Acquity liquid chromatograph interfaced with a Thermo Scientific TSQ Vantage triple quadrupole mass spectrometer with ESI ionization. […]

A short description of series [3]: Solubility of diNACA in solvents. The series is classed as physicochemical.

Regarding `N[C@@H](CS)C(=O)O` [cysteine, L-cysteine], the Km in series [1] is 100 to 300 µM.

In the case of `CC(=O)N[C@@H](CSSC[C@H](NC(C)=O)C(N)=O)C(N)=O` [diNACA, (2R,2R′)-3,3′-disulfanediyl bis(2-acetamidopropanamide)], the “anti-ferroptotic activity on pretreatment prior to ferroptosis induction” value in the series with N27 cells (50 or 500 μM in PBS for 24 hours, then erastin, RSL3 or glutamate for additional 24 hours) is given as “did not differentiate anti-ferroptotic activity”. The “concentration at which a small effect on RSL3 toxicity is seen” value in the series with N27 cells (diNACA solubilized in media (2-75 mM), RSL3 100 nM, 24 hours) is reported as 75 mM. Also, the “concentration partially preventing erastin and glutamate-induced toxicity” value with N27 cells (diNACA solubilized in media (2-75 mM), erastin 2 μM or glutamate 100 mM, 24 hours) is reported as not below 5 mM. In addition, in the series with N27 cells (erastin 2 μM, RSL3 100 nM or glutamate 100 mM, 24 hours, added at same time, liproxstatin-1 4-250 nM, NAC, NACA (in water), diNACA (in NMP) 8-500 μM), the “prevention of ferroptosis induced by erastin, RSL3 and glutamate (cell viability)” value is listed as “did not prevent ferroptosis”. For the same molecule, the “anti-ferroptotic activity on post-treatment” value in the series on N27 cells (erastin, RSL3 or glutamate for 5 hours, then 50 or 500 μM in PBS for additional 19 hours) is reported as “did not differentiate anti-ferroptotic activity”. Also, the increase in lifespan result in the series on Caenorhabditis elegans (1 mM) and in the series on Caenorhabditis elegans (10 mM) was “marked increase in lifespan” each time. The “Median survival” value in the series with Caenorhabditis elegans (1 mM in NGM) and in the series on Caenorhabditis elegans (10 mM in NGM) was 18 days throughout. Further, in the series on Caenorhabditis elegans (FIG. 8), the “lifespan of C. elegans relative to control” value was “more than doubled the lifespan”. Moreover, in the series with Caenorhabditis elegans (versus control), the “percentage lifespan extension, increase in median lifespan” value is reported as 125%. Besides, the “rescue from DEM-induced toxicity” value in the series with C. elegans (1 mM) and with C. elegans (10 mM) was “rescue” in each case. Moreover, the “% alive” value came to 95% in the series on C. elegans (1 mM pre-treatment 4 days) and 98% in the series with C. elegans (10 mM pre-treatment 4 days). Further, in series [2] (200 mg/kg oral diNACA compared with oral NACA), the “metabolism, plasma levels of NACA and NAC” value is “metabolized to NACA and NAC to yield greater levels for longer periods of time compared to oral dosing with NACA”. Also, in series [2] (200 mg/kg oral gavage, suspension in PBS pH 7), the “absorption after oral administration” value is reported as “well absorbed”. In addition, the “solubility in water or DMSO” value in series [3] (Nacuity data on file) is “not soluble in water or DMSO”. Besides, the “solubility in neat DMSO” value in series [3] (suspension, dissolved upon addition to NGM) is reported as “not fully soluble in DMSO”.
